# Measurements: patent US20260248763A1 (BIO GENUINE (SHANGHAI) BIOTECH CO., LTD, priority 2023, published 2026)
# Target: T1, OTR (Homo sapiens, UniProt P30559)
# T1 construct: expressed in transfected cells; host or cells: OTR/HEK293 stably transfected cell line
# T1 sequence (P30559 1-389): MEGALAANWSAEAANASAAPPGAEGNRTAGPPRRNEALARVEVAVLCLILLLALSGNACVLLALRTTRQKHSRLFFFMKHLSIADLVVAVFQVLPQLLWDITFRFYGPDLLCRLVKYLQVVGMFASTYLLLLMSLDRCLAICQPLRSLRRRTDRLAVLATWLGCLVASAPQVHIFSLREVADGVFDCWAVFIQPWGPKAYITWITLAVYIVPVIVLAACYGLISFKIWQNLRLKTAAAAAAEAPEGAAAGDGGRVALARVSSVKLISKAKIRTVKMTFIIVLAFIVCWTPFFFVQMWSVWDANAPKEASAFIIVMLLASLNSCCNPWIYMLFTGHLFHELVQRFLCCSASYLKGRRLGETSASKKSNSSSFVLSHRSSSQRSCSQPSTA
# Assay: Ca2+ mobilization in cells stably expressing OTR (FLIPR, antagonist mode)
# Format: cell-based
# Conditions: OTR/HEK293 stably transfected cell line
# Description: Test Example 1. Determination of the Effect of the Compound of the Present Disclosure on Ca^2+ Mobilization in Cells Stably Expressing OTR
# To measure the antagonistic effect of the compound of the present disclosure on OTR activity expressed in the OTR/HEK293 stably transfected cell line.
# • DMEM medium (Invitrogen, 11965) • F12 medium (Invitrogen, 11765) • Fetal bovine serum (Excell, FSP500) • Geneticin (Invitrogen, 10131) • Penicillin/Streptomycin (Invitrogen, SV30010) • Fluo-4 Direct kit (Invitrogen, F10471) • 384-well cell plate (Greiner, 781090) • 384-well compound plate (Greiner, 781280)
# • FLIPR instrument (Molecular Device) • EHCO instrument (Labcyte) • Cell counter (Beckman, Vi-cell XR)
# The cultured cells were washed twice with pre-heated DPBS and digested with appropriate amount of trypsin at 37° C. for 1 minute, and then appropriate amount of culture medium was added to terminate digestion. The cells were centrifuged at 1000 rpm for 5 minutes. The supernatant was gently discarded without disturbing the cell pellet at the bottom. The cells were resuspended in culture medium and 1 mL was taken out for cell counting and viability assessment using Vi-CELL™. The cells were diluted to 1×10^6 cells/mL (20,000 cells/20 μL) with culture medium, seeded into a 384-well cell plate and incubated at 37° C. with 5% CO2 for 16-20 h.
# Formulation of 250 mM Probenecid solution: according to the kit instructions, 1 mL of FLIPR buffer salt solution was added to 77 mg of probenecid, prepared fresh just before use. Formulation of Fluo-4 Direct™ (2×, 8 μM) loading buffer: according to the kit instructions, the required amount of Fluo-4 Direct™ was taken out and thawed in advance, 10 mL of FLIPR buffer salt solution and 0.2 mL of 250 mM Probenecid solution were added to each tube, and the mixture was vortexed in the dark for >5 minutes, prepared fresh just before use.
# Preparation of agonist reference compound plate: the agonist was diluted 3-fold in 10 points using ECHO, and 750 nL was transferred to the corresponding compound plate using ECHO.
# Preparation of reference and test compound plates: the test compound was diluted 3-fold in 10 points with ECHO, and 900 nL was transferred to the corresponding compound plate; the reference compound was diluted 3-fold in 10 points with assay buffer salt solution, and 30 μL was transferred to the compound plate.
# 30 μL of assay buffer salt solution was added to the corresponding compound plate, and the mixture was centrifuged at 1000 rpm for 1 minute.
# The cell plate prepared the day before was taken out of the incubator, and 20 μL of 2×Fluo-4 Direct™ buffer was added to each well, with a total volume of 40 μL.
# The plate was incubated in an incubator at 37° C. with 5% CO2 for 50 minutes, and then placed at room temperature for 10 minutes.
# The compound plate, cell plate, and pipette tips were placed into the instrument.
# For the agonist reference compound plate: the FLIPR instrument software was run, 10 μL of the pre-determined concentration of agonist reference compound was added to the cell plate following the preset protocol, and the fluorescence signal was read. After reading, the data were exported to calculate the EC80 for each cell line, and the agonist at 6×EC80 concentration was prepared.
# For the compound plate: the FLIPR instrument software was run, 10 μL of the pre-determined concentration of test compound and the reference compound were added to the cell plate following the preset protocol, and the fluorescence signal was read. 10 μL of the reference compound agonist at 6×EC80 concentration was added to the cell plate, and the fluorescence signal was read. For antagonist detection of the compound, the data were exported using the “Max-Min” and “Read 1 to Maximum allowed” methods in the software, and the data were fitted using Prism.
row,IC50 [nM],SMILES
1,42.8,"CO/N=C1\C[C@@H](CO)N(C(=O)c2ccc(-c3cccc(C#N)c3C)cc2C)C1 [Example A0244, 3-(4-[(2S,4E)-2-(Hydroxymethyl)-4-(methoxyimino)pyrrolidine-1-carbonyl]-3-methylphenyl)-2-methylbenzonitrile]"
2,57.8,"CO/N=C1\C[C@@H](CO)N(C(=O)c2ccc(-c3cccc(C#N)c3C)c(OC)c2)C1 [Example A0248, (S,E)-4′-(2-(Hydroxymethyl)-4-(methoxyimino)pyrrolidine-1-carbonyl)-2′-methoxy-2-methyl-[1,1′-biphenyl]-3-carbonitrile]"
3,3060,"CO/N=C1/CCN(C(=O)c2ccc(-c3cccc(C#N)c3C)cc2)[C@H](CO)C1 [Example A0249, (S,Z)-4′-(2-(Hydroxymethyl)-4-(methoxyimino)piperidine-1-carbonyl)-2-methyl-[1,1′-biphenyl]-3-carbonitrile]"
4,363,"CO/N=C1/C[C@@H](CO)N(C(=O)c2cnc(-c3cccc(C#N)c3C)cn2)C1 [Example A0251, (S,Z)-3-(5-(2-(Hydroxymethyl)-4-(methoxyimino)pyrrolidine-1-carbonyl)pyrazin-2-yl)-2-methylbenzonitrile]"
5,2330,"CO/N=C1\C[C@@H](CNC(C)=O)N(C(=O)c2ccc(-c3ccccc3C)cc2)C1 [Example C0003, (S, E)-N-((4-(Methoxyimino)-1-(2′-methyl-[1,1′-biphenyl]-4-carbonyl)pyrrolidin-2-yl)methyl)acetamide]"
6,628,"CO/N=C1\C[C@@H](CNC(=O)OC)N(C(=O)c2ccc(-c3ccccc3C)cc2)C1 [Example C0004, Methyl (S, E)-((4-(methoxyimino)-1-(2′-methyl-[1,1′-biphenyl]-4-carbonyl)pyrrolidin-2-yl)methyl)carbamate]"
7,1790,"CO/N=C1\C[C@@H](CNC(=O)CO)N(C(=O)c2ccc(-c3ccccc3C)cc2)C1 [Example C0005, (S, E)-2-Hydroxy-N-((4-(methoxyimino)-1-(2′-methyl-[1,1′-biphenyl]-4-carbonyl)pyrrolidin-2-yl)methyl)acetamide]"
8,534,"CO/N=C1/C[C@@H](CNC(=O)OC)N(C(=O)c2ccc(-c3ccccc3C)cc2)C1 [Example C0007, Methyl (S, Z)-((4-(methoxyimino)-1-(2′-methyl-[1,1′-biphenyl]-4-carbonyl)pyrrolidin-2-yl)methyl)carbamate]"
9,1010,"CO/N=C1/C[C@@H](CNC(=O)CO)N(C(=O)c2ccc(-c3ccccc3C)cc2)C1 [Example C0008, (S, Z)-2-Hydroxy-N-((4-(methoxyimino)-1-(2′-methyl-[1,1′-biphenyl]-4-carbonyl)pyrrolidin-2-yl)methyl)acetamide]"
10,853,"CO/N=C1/C[C@@H](CO)N(C(=O)c2cnc(-c3ccccc3C)cn2)C1 [Example C0013, (S, Z)-(2-(Hydroxymethyl)-4-(methoxyimino)pyrrolidin-1-yl)(5-(o-tolyl)pyrazin-2-yl)methanone]"
11,888,"CO/N=C1/C[C@@H](CO)N(C(=O)c2ccc(-c3ccccc3C)cn2)C1 [Example C0015, (S, Z)-(2-(Hydroxymethyl)-4-(methoxyimino)pyrrolidin-1-yl)(5-(o-tolyl)pyridin-2-yl)methanone]"
12,140,"CO/N=C1/C[C@@H](COCCO)N(C(=O)c2ccc(-c3ccccc3C)cc2)C1 [Example C0017, (S, Z)-(2-((2-Hydroxyethoxy)methyl)-4-(methoxyimino)pyrrolidin-1-yl)(2′-methyl-[1,1′-biphenyl]-4-yl)methanone]"
13,545,"CO/N=C1\C[C@@H](COCCO)N(C(=O)c2ccc(-c3ccccc3C)cc2)C1 [Example C0018, (S, E)-(2-((2-Hydroxyethoxy)methyl)-4-(methoxyimino)pyrrolidin-1-yl)(2′-methyl-[1,1′-biphenyl]-4-yl)methanone]"
14,1820,"CO/N=C1/C[C@@H](CO)N(C(=O)c2cnc(-c3ccccc3C)s2)C1 [Example C0030, (S, Z)-(2-(Hydroxymethyl)-4-(methoxyimino)pyrrolidin-1-yl)(2-(o-tolyl)thiazol-5-yl)methanone]"
15,295,"CO/N=C1\CN(C(=O)c2ccc(-c3ccccc3C)cc2)[C@@]2(CCNC2=O)C1 [Example C0039, (S, Z)-3-(Methoxyimino)-1-(2′-methyl-[1,1′-biphenyl]-4-carbonyl)-1,7-diazaspiro[4.4]nonan-6-one]"
16,115,"CO/N=C1/C[C@@H](CO)N(C(=O)c2ccc(-c3cccc4c3CCC4)cc2)C1 [Example C0051, (S, Z)-(4-(2,3-Dihydro-1H-inden-4-yl)phenyl)(2-(hydroxymethyl)-4-(methoxyimino)pyrrolidin-1-yl)methanone]"
17,82.9,"CO/N=C1\C[C@@H](CO)N(C(=O)c2ccc(-c3cccc(C#N)c3C)cc2)C1 [Example C0057, (S, E)-4′-(2-(Hydroxymethyl)-4-(methoxyimino)pyrrolidine-1-carbonyl)-2-methyl-[1,1′-biphenyl]-3-carbonitrile]"
18,237,"CO/N=C1/C[C@@H](CO)N(C(=O)c2cc(C(F)(F)F)c(-c3cccc(C)c3C)cn2)C1 [Example C0071, (S, Z)-(5-(2,3-Dimethylphenyl)-4-(trifluoromethyl)pyridin-2-yl)(2-(hydroxymethyl)-4-(methoxyimino)pyrrolidin-1-yl)methanone]"
19,673,"CO/N=C1/C[C@@H](CO)N(C(=O)c2cc(=O)n(-c3cccc(C)c3C)cn2)C1 [Example C0077, (S, Z)-3-(2,3-Dimethylphenyl)-6-(2-(hydroxymethyl)-4-(methoxyimino)pyrrolidine-1-carbonyl)pyrimidin-4(3H)-one]"
20,129,"CO/N=C1/C[C@@H](CO)N(C(=O)c2ncc(-c3cccc(C)c3C)cc2OC)C1 [Example C0081, (S, Z)-(5-(2,3-Dimethylphenyl)-3-methoxypyridin-2-yl)(2-(hydroxymethyl)-4-(methoxyimino)pyrrolidin-1-yl)methanone]"
21,161,"CO/N=C1/C[C@@H](CO)N(C(=O)c2ccc(-c3cccc(C)c3C)c(C(F)(F)F)n2)C1 [Example C0085, (S, Z)-(5-(2,3-Dimethylphenyl)-6-(trifluoromethyl)pyridin-2-yl)(2-(hydroxymethyl)-4-(methoxyimino)pyrrolidin-1-yl)methanone]"
22,176,"CO/N=C1/C[C@@H](CO)N(C(=O)c2ncc(-c3cccc(C)c3C)c(C(F)(F)F)n2)C1 [Example C0087, (S, Z)-(5-(2,3-Dimethylphenyl)-4-(trifluoromethyl)pyrimidin-2-yl)(2-(hydroxymethyl)-4-(methoxyimino)pyrrolidin-1-yl)methanone]"
23,279,"CO/N=C1/C[C@@H](CO)N(C(=O)c2ccc(-c3ccnc(C#N)c3C)cc2)C1 [Example C0091, (S, Z)-4-(4-(2-(Hydroxymethyl)-4-(methoxyimino)pyrrolidine-1-carbonyl)phenyl)-3-methylpicolinonitrile]"
24,1260,"CO/N=C1/C[C@@H](CO)N(C(=O)c2ccc(-c3cc(C#N)ccc3C)cc2)C1 [Example C0095, (S, Z)—4′-(2-(Hydroxymethyl)-4-(methoxyimino)pyrrolidine-1-carbonyl)-6-methyl-[1,1′-biphenyl]-3-carbonitrile]"

row,SMILES,IC50 [nM]
1,CO/N=C1\C[C@@H](CO)N(C(=O)c2ccc(-c3cccc(C#N)c3C)cc2OC)C1 [Example A0245],58.1
